Experimental data taken from patent US20040097596A1 (priority 2000, published 2004).
Read-outs that look alike come from different tables or passages of the source.

System: Phytophthora infestans
Assay type: in vivo
Conditions: for E, Expected % disease control / O, Observed % disease control / O-E: A76 potato; for performance in combination with A76 (indicative of synergy): in combination with A76 potato, observed vs expected disease control
[1] = 3 ppm, Jan. 25, 2001, FB 2001/3001
[2] = 3 ppm, Jan. 26, 2001, FB 2001/3001
[3] = 3 ppm, Jan. 27, 2001, FB 2001/3001
[4] = 3 ppm, Jan. 28, 2001, FB 2001/3001
[5] = 3 ppm, Jan. 29, 2001, FB 2001/3001
[6] = 3 ppm, Oct. 13, 2000, FB 2000/3024
[7] = 3 ppm, Oct. 16, 2000, FB 2000/3024
[8] = 3 ppm, Oct. 18, 2000, FB 2000/3024
[9] = 3 ppm, Oct. 20, 2000, FB 2000/3024
[10] = 10 ppm, Jan. 25, 2001, FB 2001/3001
[11] = 10 ppm, Jan. 26, 2001, FB 2001/3001
[12] = 10 ppm, Jan. 27, 2001, FB 2001/3001
[13] = 10 ppm, Jan. 28, 2001, FB 2001/3001
[14] = 10 ppm, Jan. 29, 2001, FB 2001/3001
[15] = 10 ppm, Oct. 13, 2000, FB 2000/3024
[16] = 10 ppm, Oct. 16, 2000, FB 2000/3024
[17] = 10 ppm, Oct. 18, 2000, FB 2000/3024
[18] = 10 ppm, Oct. 20, 2000, FB 2000/3024
[19] = 30 ppm, Oct. 13, 2000, FB 2000/3024
[20] = 30 ppm, Oct. 16, 2000, FB 2000/3024
[21] = 30 ppm, Oct. 18, 2000, FB 2000/3024
[22] = 30 ppm, Oct. 20, 2000, FB 2000/3024

## N#Cc1c(Cl)c(Cl)c(Cl)c(C#N)c1Cl [Chlorothalonil, chlorothalonil]
[1]
  E, Expected % disease control: 98.3%
  O, Observed % disease control: 91.7%
  O-E: −1.6
[2]
  E, Expected % disease control: 96.2%
  O, Observed % disease control: 94.9%
  O-E: −1.3
[3]
  E, Expected % disease control: 94.5%
  O, Observed % disease control: 92.7%
  O-E: −1.7
[4]
  E, Expected % disease control: 83.2%
  O, Observed % disease control: 86.9%
  O-E: 3.6
[5]
  E, Expected % disease control: 67.2%
  O, Observed % disease control: 77.9%
  O-E: 10.7
[6]
  E, Expected % disease control: 73.73%
  O, Observed % disease control: 83.1%
  O-E: 9.37
[7]
  E, Expected % disease control: 78.12%
  O, Observed % disease control: 86.09%
  O-E: 7.97
[8]
  E, Expected % disease control: 56.09%
  O, Observed % disease control: 76.41%
  O-E: 20.32
[9]
  E, Expected % disease control: 39.95%
  O, Observed % disease control: 75.7%
  O-E: 35.75
[10]
  E, Expected % disease control: 97.0%
  O, Observed % disease control: 97.2%
  O-E: 0.2
[11]
  E, Expected % disease control: 98.2%
  O, Observed % disease control: 97.4%
  O-E: −0.8
[12]
  E, Expected % disease control: 97.8%
  O, Observed % disease control: 97.9%
  O-E: 0.1
[13]
  E, Expected % disease control: 93.8%
  O, Observed % disease control: 99.0%
  O-E: 5.2
[14]
  E, Expected % disease control: 90.1%
  O, Observed % disease control: 97.0%
  O-E: 6.9
[15]
  E, Expected % disease control: 92.49%
  O, Observed % disease control: 88.73%
  O-E: −3.76
[16]
  E, Expected % disease control: 94.65%
  O, Observed % disease control: 95.36%
  O-E: 0.71
[17]
  E, Expected % disease control: 91.33%
  O, Observed % disease control: 87.77%
  O-E: −3.56
[18]
  E, Expected % disease control: 84.98%
  O, Observed % disease control: 79.74%
  O-E: −5.24
  performance in combination with A76 (indicative of synergy): better than expected

## COCC(=O)N(c1c(C)cccc1C)C(C)C(=O)OC (centres unmarked) [Metalaxyl, metalaxyl]
[1]
  E, Expected % disease control: 88.8%
  O, Observed % disease control: 91.7%
  O-E: 2.8
[2]
  E, Expected % disease control: 92.6%
  O, Observed % disease control: 94.9%
  O-E: 2.3
[3]
  E, Expected % disease control: 87.2%
  O, Observed % disease control: 93.8%
  O-E: 6.5
[4]
  E, Expected % disease control: 57.9%
  O, Observed % disease control: 91.9%
  O-E: 34.1
[5]
  E, Expected % disease control: 38.1%
  O, Observed % disease control: 89.9%
  O-E: 51.8
[6]
  E, Expected % disease control: 79.35%
  O, Observed % disease control: 94.37%
  O-E: 15.02
[7]
  E, Expected % disease control: 71.31%
  O, Observed % disease control: 97.68%
  O-E: 26.37
[8]
  E, Expected % disease control: 58.26%
  O, Observed % disease control: 97.95%
  O-E: 39.69
[9]
  E, Expected % disease control: 42.01%
  O, Observed % disease control: 95.95%
  O-E: 53.94
[10]
  E, Expected % disease control: 98.3%
  O, Observed % disease control: 97.2%
  O-E: 3.9
[11]
  E, Expected % disease control: 96.2%
  O, Observed % disease control: 98.7%
  O-E: 2.5
[12]
  E, Expected % disease control: 94.2%
  O, Observed % disease control: 99.0%
  O-E: 4.8
[13]
  E, Expected % disease control: 80.4%
  O, Observed % disease control: 98.0%
  O-E: 17.6
[14]
  E, Expected % disease control: 55.4%
  O, Observed % disease control: 97.0%
  O-E: 41.6
[15]
  E, Expected % disease control: 88.74%
  O, Observed % disease control: 94.37%
  O-E: 5.63
[16]
  E, Expected % disease control: 87.84%
  O, Observed % disease control: 96.6%
  O-E: 8.76
[17]
  E, Expected % disease control: 75.07%
  O, Observed % disease control: 97.95%
  O-E: 22.88
[18]
  E, Expected % disease control: 48.83%
  O, Observed % disease control: 96.96%
  O-E: 48.13
[19]
  E, Expected % disease control: 96.25%
  O, Observed % disease control: 100%
  O-E: 3.75
[20]
  E, Expected % disease control: 97.08%
  O, Observed % disease control: 100%
  O-E: 2.92
[21]
  E, Expected % disease control: 94.58%
  O, Observed % disease control: 97.95%
  O-E: 3.37
[22]
  E, Expected % disease control: 89.77%
  O, Observed % disease control: 97.97%
  O-E: 8.2
  performance in combination with A76 (indicative of synergy): better than expected
